Assay results from paper PMC11087051, “Large-scale deorphanization of Nematostella vectensis neuropeptide G protein-coupled receptors supports the independent expansion of bilaterian and cnidarian peptidergic systems” (eLife, 2024).
Residues, ends and D or L forms follow the SMILES beside them. No end group written: not given here.

Assay: Maximal solubility of the synthetic peptides in water and in DMSO (sheet Peptide_mixes)
Format: physicochemical
Settings: for max solve (DMSO): in DMSO, number in brackets in the cell; for max solve water: in water, number before the bracket in the cell
Description: Supplement elife-90674-supp3.xlsx, sheet "Peptide_mixes"

| Compound | max solve (DMSO) | max solve water |
| --- | --- | --- |
| EIQPGNMKVWSDPF [PNX14] | 10 mg/mL | 5 mg/mL |
| IPPQGLRFNQW-NH2 [QWa2] | 10 mg/mL | 5 mg/mL |
| N=C(N)NCCC[C@H](NC(=O)[C@@H]1CCCN1C(=O)CN)C(=O)NCC(N)=O [PRGa] (H-GPRG-NH2) | 10 (10) mg/ml | 10 (10) mg/ml |
| CC[C@H](C)[C@H](NC(=O)[C@@H]1CCCN1C(=O)[C@@H](NC(=O)[C@H](CCCNC(=N)N)NC(=O)[C@H](Cc1ccccc1)NC(=O)[C@@H]1CCCN1C(=O)[C@@H]1CCCN1C(=O)[C@@H]1CCC(=O)N1)[C@@H](C)CC)C(N)=O [pIPIa] (HELM PEPTIDE1{[Glp].P.P.F.R.I.P.I.[am]}$$$$V2.0) | 10 mg/mL | 0 mg/mL |
| IPPQGFRFSQW-NH2 [QWa] | 10 mg/mL | 0 mg/mL |
| GPPGLW-NH2 [GLWa3] | 10 mg/mL | 5 mg/mL |
| N=C(N)NCCC[C@H](NC(=O)CNC(=O)[C@@H]1CCC(=O)N1)C(=O)N[C@@H](Cc1ccccc1)C(N)=O [QGRFa] (HELM PEPTIDE1{[Glp].G.R.F.[am]}$$$$V2.0) | 10 mg/mL | 5 mg/mL |
| WPPRP-NH2 [FRPa1] | 10 (10) mg/ml | 10 (10) mg/ml |
| YPPFLELGQPSYFHIR-NH2 [HIRa2] | 10 mg/mL | 5 mg/mL |
| APRGGRDAPRG-NH2 [PRGa5] | 10 (10) mg/ml | 10 (10) mg/ml |
| TPPSNI-NH2 [SNIa] | 5 mg/mL | 2 mg/mL |
| CC[C@H](C)[C@H](NC(=O)[C@@H]1CCC(=O)N1)C(=O)N[C@H](C(=O)N[C@@H](CCCNC(=N)N)C(=O)N[C@@H](Cc1ccccc1)C(N)=O)[C@@H](C)O [RFa0] (HELM PEPTIDE1{[Glp].I.T.R.F.[am]}$$$$V2.0) | 5 (5) mg/ml | 5 (5) mg/ml |
| GPPPIYLPVRP-NH2 [RHa3] | 10 (10) mg/ml | 10 (10) mg/ml |
| GYYRDNIQETRQYLDPRP-NH2 [RHa4] | 10 mg/mL | 5 mg/mL |
| SPWSCSLRP-NH2 [LRPa1] | 10 (10) mg/ml | 10 (10) mg/ml |
| GPPQGLRW-NH2 [LRWa3] | 5 (5) mg/ml | 5 (5) mg/ml |
| CC(C)C[C@H](NC(=O)[C@@H]1CCC(=O)N1)C(=O)N[C@@H](Cc1ccccc1)C(=O)N[C@@H](CCCNC(=N)N)C(=O)N1CCC[C@H]1C(N)=O [FRPa4] (HELM PEPTIDE1{[Glp].L.F.R.P.[am]}$$$$V2.0) | 10 (10) mg/ml | 10 (10) mg/ml |
| CSCC[C@H](NC(=O)[C@H](C)NC(=O)[C@@H]1CCC(=O)N1)C(=O)N[C@@H](CCC(N)=O)C(=O)N[C@@H](Cc1c[nH]c2ccccc12)C(=O)NCC(=O)N[C@@H](Cc1c[nH]cn1)C(=O)N[C@@H](CCCCN)C(=O)NCC(=O)N[C@@H](Cc1c[nH]c2ccccc12)C(=O)N[C@@H](C)C(=O)O [GWA1] (HELM PEPTIDE1{[Glp].A.M.Q.W.G.H.K.G.W.A}$$$$V2.0) | 10 mg/mL | 0 mg/mL |
| CC(C)C[C@H](NC(=O)[C@H](CCCNC(=N)N)NC(=O)[C@@H](NC(=O)[C@H](CC(N)=O)NC(=O)[C@H](C)NC(=O)[C@H](CCCCN)NC(=O)[C@@H]1CSSC[C@H](NC(=O)[C@H](Cc2c[nH]cn2)NC(=O)CNC(=O)[C@H](CC(N)=O)NC(=O)[C@@H]2CCC(=O)N2)C(=O)N2CCC[C@H]2C(=O)N2CCC[C@H]2C(=O)NCC(=O)N[C@@H](CC(C)C)C(=O)N[C@@H](Cc2c[nH]c3ccccc23)C(=O)N[C@@H](CC(C)C)C(=O)N1)[C@@H](C)O)C(=O)O [GLWLcc] (HELM PEPTIDE1{[Glp].N.G.H.C.P.P.G.L.W.L.C.K.A.N.T.R.L}$PEPTIDE1,PEPTIDE1,5:R3-12:R3$$$V2.0) | 5 (5) mg/ml | 5 (5) mg/ml |
| GPRGGREVNLEGPRG-NH2 [PRGa2] | 5 (5) mg/ml | 5 (5) mg/ml |
| CC(C)C[C@H](NC(=O)[C@H](Cc1ccccc1)NC(=O)[C@H](C)NC(=O)[C@H](CC(=O)O)NC(=O)[C@@H]1CCC(=O)N1)C(=O)N1CCC[C@H]1C(=O)N[C@@H](CCCCN)C(=O)N1CCC[C@H]1C(=O)N[C@@H](CCCNC(=N)N)C(=O)N1CCC[C@H]1C(N)=O [RPa1] (HELM PEPTIDE1{[Glp].D.A.F.L.P.K.P.R.P.[am]}$$$$V2.0) | 10 (10) mg/ml | 10 (10) mg/ml |
| CC[C@H](C)[C@H](NC(=O)[C@H](CC(C)C)NC(=O)[C@@H]1CCC(=O)N1)C(=O)N[C@@H](Cc1ccccc1)C(=O)N[C@@H](CCCNC(=N)N)C(=O)N1CCC[C@H]1C(N)=O [FRPa] (HELM PEPTIDE1{[Glp].L.I.F.R.P.[am]}$$$$V2.0) | 10 mg/mL | 5 mg/mL |

| Compound | max solve (DMSO) | max solve water |
| --- | --- | --- |
| CC[C@H](C)[C@H](NC(=O)[C@H](Cc1c[nH]cn1)NC(=O)[C@H](Cc1ccccc1)NC(=O)[C@H](Cc1ccccc1)NC(=O)[C@H](CO)NC(=O)[C@@H]1CCCN1C(=O)[C@H](CCC(=O)O)NC(=O)CNC(=O)[C@H](CC(C)C)NC(=O)[C@H](CC(=O)O)NC(=O)[C@H](CC(C)C)NC(=O)[C@H](Cc1ccc(O)cc1)NC(=O)[C@@H]1CCCN1C(=O)[C@@H]1CCCN1C(=O)[C@@H]1CCC(=O)N1)C(=O)N[C@@H](CCCNC(=N)N)C(N)=O [HIRa1] (HELM PEPTIDE1{[Glp].P.P.Y.L.D.L.G.E.P.S.F.F.H.I.R.[am]}$$$$V2.0) | 10 (10) mg/ml | 10 (10) mg/ml |
| KGIKQEEIQPGNMKVWSDPF [PNX20] | 10 mg/mL | 5 mg/mL |
| APGLW-NH2 [GLWa4] | 10 (10) mg/ml | 10 (10) mg/ml |
| QPGNMKVWSDPF [PNX12] | 5 mg/mL | 0 mg/mL |
| YPPLNTV-NH2 [NTVa] | 10 mg/mL | 5 mg/mL |
| CC(C)C[C@H](NC(=O)CNC(=O)[C@@H]1CCCN1C(=O)[C@@H]1CCCN1C(=O)[C@@H](N)CS)C(=O)N[C@@H](Cc1c[nH]c2ccccc12)C(=O)N[C@@H](CS)C(N)=O [Am_CCa] (H-CPPGLWC-NH2) | 10 mg/mL | 5 mg/mL |
| CC(C)C[C@@H]1NC(=O)CNC(=O)[C@@H]2CCCN2C(=O)[C@@H]2CCCN2C(=O)[C@@H](NC(=O)[C@@H]2CCC(=O)N2)CSSC[C@@H](C(=O)O)NC(=O)CNC(=O)[C@H](Cc2c[nH]c3ccccc23)NC1=O [GLWGcc] (HELM PEPTIDE1{[Glp].C.P.P.G.L.W.G.C}$PEPTIDE1,PEPTIDE1,2:R3-9:R3$$$V2.0) | 10 mg/mL | 2 mg/mL |
| RSNRVVIHTGANPTMAPLRIPF-NH2 [IPFa] | 10 mg/mL | 5 mg/mL |
| MPEQDANPQTRFD-NH2 [RFa2] | 10 mg/mL | 5 mg/mL |
| SPPQWKLDSSPPQW [QW3] | 10 mg/mL | 5 mg/mL |
| TPPQW [QW1] | 10 mg/mL | 2 mg/mL |
| FPPGFHRP-NH2 [HRPa] | 10 mg/mL | 5 mg/mL |
| APPGNGEGEAGFIPWFS-NH2 [WFSa] | 2 mg/mL | 0 mg/mL |
| CC(C)C[C@H](NC(=O)CNC(=O)CNC(=O)[C@@H]1CCC(=O)N1)C(=O)N[C@@H](CCCNC(=N)N)C(=O)N[C@@H](Cc1c[nH]c2ccccc12)C(N)=O [LRWa2] (HELM PEPTIDE1{[Glp].G.G.L.R.W.[am]}$$$$V2.0) | 10 mg/mL | 5 mg/mL |
| CC(C)C[C@H](NC(=O)CNC(=O)[C@@H]1CCCN1C(=O)[C@@H]1CCCN1C(=O)[C@H](CS)NC(=O)[C@@H]1CCC(=O)N1)C(=O)N[C@@H](Cc1c[nH]c2ccccc12)C(=O)NCC(=O)N[C@@H](CS)C(=O)O [GLWG] (HELM PEPTIDE1{[Glp].C.P.P.G.L.W.G.C}$$$$V2.0) | 10 (10) mg/ml | 10 (10) mg/ml |
| CC(C)C[C@H](NC(=O)[C@H](CO)NC(=O)[C@H](CCC(=O)O)NC(=O)CNC(=O)[C@H](CC(=O)O)NC(=O)[C@@H](NC(=O)[C@H](CCC(=O)O)NC(=O)[C@@H]1CCC(=O)N1)[C@@H](C)O)C(=O)N[C@@H](CCCCN)C(=O)N[C@@H](CCCCN)C(=O)N[C@@H](C)C(=O)N[C@@H](CCC(=O)O)C(=O)N[C@@H](CCC(=O)O)C(=O)N[C@@H](CCC(=O)O)C(=O)N[C@@H](Cc1ccccc1)C(=O)N[C@H](C(=O)O)C(C)C [EFV] (HELM PEPTIDE1{[Glp].E.T.D.G.E.S.L.K.K.A.E.E.E.F.V}$$$$V2.0) | 10 mg/mL | 5 mg/mL |
| N=C(N)NCCC[C@H](NC(=O)CNC(=O)[C@H](CCC(N)=O)NC(=O)[C@H](CC(=O)O)NC(=O)[C@H](CCC(=O)O)NC(=O)[C@H](CCCNC(=N)N)NC(=O)CNC(=O)[C@H](Cc1ccccc1)NC(=O)[C@H](CCCNC(=N)N)NC(=O)CNC(=O)[C@@H]1CCC(=O)N1)C(=O)N[C@@H](Cc1ccccc1)C(N)=O [RFa1] (HELM PEPTIDE1{[Glp].G.R.F.G.R.E.D.Q.G.R.F.[am]}$$$$V2.0) | 10 mg/mL | 5 mg/mL |
| GPRGGRATEFGPRG-NH2 [PRGa3] | 10 (10) mg/ml | 10 (10) mg/ml |
| CC[C@H](C)[C@H](NC(=O)[C@H](CC[S+](C)[O-])NC(=O)[C@@H]1CCCN1C(=O)[C@@H]1CCCN1C(=O)CN)C(=O)N[C@@H](CCCCN)C(=O)N[C@H](C(=O)N1CCC[C@H]1C(=O)N[C@H](C(=O)N[C@@H](CCCNC(=N)N)C(=O)N[C@@H](Cc1c[nH]cn1)C(N)=O)C(C)C)[C@@H](C)CC (some centres unmarked) [RHa2] (HELM PEPTIDE1{G.P.P.[CS(=O)CC[C@H](N[*:1])C(=O)[*:2]].I.K.I.P.V.R.H.[am]}$$$$V2.0) | 10 mg/mL | 5 mg/mL |
| NPPIDLGPAYFHIR-NH2 [HIRa5] | 10 mg/mL | 5 mg/mL |
| GPPMIKIPVRH-NH2 [VRHa] | 10 (10) mg/ml | 10 (10) mg/ml |
